Laboratory results as given in patent publication US7012129B2, “Antiviral composition comprising glycine amide” (priority 2001, dated 2006).
Peptide text beside a SMILES is read from it.

What was measured:
[1] = system: HIV-1; details: for Mean p24: CEM cells, 100 μM, culture supernatant, day 11 after infection (FIG. 2), inf. control 1.62; for inhibition of HIV-1 replication (in words): infected CEM cells, 100 μM concentration
Method: By one approach, virus was added at 50–100 TCID50 to 3×10^5 H9 cells in a total volume of 500 μl containing RPMI 1640 medium supplemented with 10% (v/v) heat-inactivated fetal bovine serum (FBS), L-Glutamine, and Bensylpenicillin and Streptomycin (PS) (approximately 0.5 ml added to 500 ml RPMI medium), all available through LifeTechnology/GIBCO laboratories. […] The virus and cells were then mixed gently on a vortex and were incubated at 37° C. for one hour and thirty minutes. Next, the cells were pelleted at 1200 rpm for 7 minutes and the supernatant was discarded.
(§1) The cells were then resuspended in RPMI++ at a concentration of 3×10^5 cells per ml. […] Cells were then incubated at 37° C. in a 5% CO2 enriched incubator. The medium was changed on day 4, 7, and finally day 11. The infection was stopped on day 11 or 14. During each media change, approximately 0.8 ml was replaced and 0.8 ml of the supernatant was transferred to a sterile 96 well plate and stored at −80° C. for p24 analysis.
(§2) The presence of p24 in the supernatants was determined using a p24 antigen detection method. […] By one approach, a capture-assay is employed, wherein the viral antigen is captured on a 96-well plate coated with a polyclonal anti-p24 rabbit serum (Swedish Institute for infectious disease control). The captured antigen is then detected with peroxidase conjugated anti-p24 mouse monoclonal antibodies. The conjugate is a pool of three different monoclonal antibodies. The analysis was performed with cell free supernatant directly from the cell culture or with supernatant that had been stored at −20° C. to −80° C.
Accordingly, a p24 standard was diluted (e.g., 4, 2, 1, 0.5, 0.25, 0.125, 0.0625 ng/ml) in RPMI++ media. The standard, recombinant HIV-1 LAI gag p24, was purchased from NIBSC, Centralized Facility for AIDS Reagent, MRC. (order no EVA620). In some cases, serial dilutions of the supernatants were made so as to more accurately detect p24 concentration. Coated plates (e.g., plates coated with a polyclonal anti-p24 rabbit serum) were washed 4 times with approximately 300–350 μl/well washing buffer (PBS with 0.05% Tween-20). The plates were inverted and tapped against absorbant paper after each wash to discard the superfluous washing buffer. Approximately, 100 μl of each sample and standard was added to individual wells on the plate. The plates were covered with tape and incubated at 37° C. for 2 hours or in the dark at room temperature over night.
Next, the plates were washed again as above. Approximately 100 μl/well of conjugate diluted in conjugate buffer (PBS with 0.5% Triton X-100, 0.5% Bovine Serum Albumin, 0.05% Tween-20, and 10% Fetal Bovine Serum). The plates were then covered with tape and incubated at 37° C. for 2 to 4 hours. The OPD substrate (ABBOTT) was then prepared by adding 1 tablet of OPD per 5 ml OPD substrate solution (12.8 mg OPD (o-phenylenediamine. 2 HCl) per tablet and 1 tablet was dissolved in 5 ml citrate-phosphate buffer containing 0.02% hydrogen peroxidase). The solution was kept in the dark until it was used. The conjugate bound plates were then washed as above and, after the final wash, 100 μof OPD substrate solution/well was added and the plates were incubated at room temperature for 30 minutes.

[2] = system: HIV-1; details: for effect on HIV replication/infectivity (in words): 100 μM concentration; for p24 ng/ml Mean: 100 μM peptide, culture supernatant, day 7 after infection (FIG. 1), infected control 53.31
From the text: The tripeptide amides made according to EXAMPLE 1 were used in several HIV-1 infectivity assays to determine the ability of said tripeptide amides to inhibit HIV replication and/or infection. The efficiency of HIV-1 replication and status of HIV-1 infection was monitored by the concentration of p24 protein in the cell supernatant.
In a first set of experiments, approximately 3×10^5 H9 cells were infected with HIV-1 (e.g., 50–100 TCID50 per 300,000 H9 cells) to test the inhibitory effect of various tripeptide amides provided at 100 μM concentration.
By one approach, virus was added at 50–100 TCID50 to 3×10^5 H9 cells in a total volume of 500 μl containing RPMI 1640 medium supplemented with 10% (v/v) heat-inactivated fetal bovine serum (FBS), L-Glutamine, and Bensylpenicillin and Streptomycin (PS) (approximately 0.5 ml added to 500 ml RPMI medium), all available through LifeTechnology/GIBCO laboratories. This media is referred to as “RPMI++ media.” Cell counting was accomplished using 0.2% tryphanblue dissolved in PBS and a Bürker cell counter chamber. The virus and cells were then mixed gently on a vortex and were incubated at 37° C. for one hour and thirty minutes. Next, the cells were pelleted at 1200 rpm for 7 minutes and the supernatant was discarded.
as §1, §2
Accordingly, a p24 standard was diluted (e.g., 4, 2, 1, 0.5, 0.25, 0.125, 0.0625 ng/ml) in RPMI++ media. […] In some cases, serial dilutions of the supernatants were made so as to more accurately detect p24 concentration. Coated plates (e.g., plates coated with a polyclonal anti-p24 rabbit serum) were washed 4 times with approximately 300–350 μl/well washing buffer (PBS with 0.05% Tween-20). The plates were inverted and tapped against absorbant paper after each wash to discard the superfluous washing buffer. Approximately, 100 μl of each sample and standard was added to individual wells on the plate. The plates were covered with tape and incubated at 37° C. for 2 hours or in the dark at room temperature over night.
Next, the plates were washed again as above. Approximately 100 μl/well of conjugate diluted in conjugate buffer (PBS with 0.5% Triton X-100, 0.5% Bovine Serum Albumin, 0.05% Tween-20, and 10% Fetal Bovine Serum). The plates were then covered with tape and incubated at 37° C. for 2 to 4 hours.

[3] = system: HIV; assay: Electron microscopy of HIV budding in treated HUT78 cells (nodular structures); format: cell-based
[4] = system: HIV; assay: Electron microscopy of HIV budding in treated ACH-2 cells (nodular structures); format: cell-based
[5] = HIV infected H9 cells, 100 μM, day 11 (FIG. 3)
[6] = ACH-2 cells, electron microscopy

Row | Compound | Mean p24 [1] | inhibition of HIV-1 replication (in words) [1] | effect on HIV replication/infectivity (in words) ([2]; H9 cells) | p24 ng/ml Mean ([2]; H9 cells) | further results
1 | NCC(=O)O [G-OH, glycine] | 1.73 ng/mL | an inhibition of HIV-1 replication was not observed | – | – | p24 present in the culture supernatant [2, 5]: approximately 65 ng/ml
2 | prolyl-glycine-arginine-amide [PGR-NH2, reference compound] | – | – | little affect on HIV infectivity | 55.93 ng/mL | –
3 | CC(C)C[C@H](NC(=O)CN)C(=O)NCC(N)=O [GLG-NH2, glycyl-leucyl-glycine-amide] (H-Gly-Leu-Gly-NH2) | – | – | almost completely inhibited HIV replication | 2.71 ng/mL | –
4 | NCC(=O)N[C@@H](Cc1ccc(O)cc1)C(=O)NCC(N)=O [GYG-NH2, glycyl-tyrosyl-glycine-amide] (H-Gly-Tyr-Gly-NH2) | 0.02 ng/mL | inhibited HIV-1 replication | – | – | –
5 | fenylalanyl-leucyl-glycine-amide [FLG-NH2] | 0.00 ng/mL | inhibit HIV-1 replication | almost completely inhibited HIV replication | 0.25 ng/mL | –
6 | CC[C@H](C)[C@H](NC(=O)[C@H](C)N)C(=O)NCC(N)=O [AIG-NH2, alanyl-isoleucyl-glycine-amide] (H-Ala-Ile-Gly-NH2) | – | – | almost completely inhibited HIV replication | 10.69 ng/mL | –
7 | C[C@H](N)C(=O)N1CCC[C@H]1C(=O)NCC(N)=O [APG-NH2, alanyl-prolyl-glycine-amide] (H-Ala-Pro-Gly-NH2) | 0.01 ng/mL | inhibit HIV-1 replication | almost completely inhibited HIV replication | 1.13 ng/mL | –
8 | α-tertiary-butylglycine-prolyl-glycine-amide [tbutGPG-NH2] | -0.01 ng/mL | inhibit HIV-1 replication | almost completely inhibited HIV replication | 0.44 ng/mL | –
9 | NCC(=O)N[C@@H](Cc1c[nH]c2ccccc12)C(=O)NCC(N)=O [GWG-NH2, glycyl-tryptophanyl-glycine-amide] (H-Gly-Trp-Gly-NH2) | 0.15 ng/mL | inhibit HIV-1 replication | almost completely inhibited HIV replication | 0.61 ng/mL | –
10 | CC(C)C[C@H](NC(=O)[C@H](C)N)C(=O)NCC(N)=O [ALG-NH2, alanyl-leucyl-glycine-amide] (H-Ala-Leu-Gly-NH2) | – | – | – | – | dense nodular structure attached to the outer part of viral envelope [3]: 8%; treated cells carrying virus particles that had nodular structures on outer membrane [3]: 56%
11 | NCC(N)=O [G-NH2, glycine amide] | 0.04 ng/mL | inhibited HIV-1 replication | – | – | inhibition of HIV replication at 20 μM (in words) ([2]; H9 cells, 20 μM, p24 at day 11 after infection (FIG. 4)): almost completely inhibited HIV replication; dose dependence of inhibition of HIV replication (in words) ([2]; H9 cells, 0.5–20 μM, p24 at day 11 after infection (FIG. 4)): inhibits HIV replication in a dose dependent manner; concentration at which significant inhibition of HIV replication was achieved ([2]; H9 cells, p24 at day 11 after infection, 0.5–20 μM tested (FIG. 4)): less than 5 μM; amount of p24 in culture supernatant compared with controls (in words) [2, 5]: almost identical to that found in the non-infected control
12 | NCC(=O)N[C@@H](Cc1ccccc1)C(=O)NCC(N)=O [GFG-NH2, glycyl-phenylalanyl-glycine-amide] (H-Gly-Phe-Gly-NH2) | 0.08 ng/mL | inhibit HIV-1 replication | almost completely inhibited HIV replication | 0.45 ng/mL | –
13 | NCC(=O)NCC(=O)NCC(N)=O [GGG-NH2, glycyl-glycyl-glycine-amide, reference compound] (H-Gly-Gly-Gly-NH2) | – | – | little affect on HIV infectivity | 61.82 ng/mL | –
14 | CC(C)C[C@H](N)C(=O)N[C@@H](CC(N)=O)C(=O)N[C@@H](Cc1ccccc1)C(N)=O [LNF-NH2, leucyl-asparagyl-phenylalanine-amide, reference compound] (H-Leu-Asn-Phe-NH2) | 1.45 ng/mL | – | – | – | –
15 | NCC(=O)N1CCC[C@H]1C(=O)NCC(N)=O [GPG-NH2, glycyl-prolyl-glycine-amide, reference compound] (H-Gly-Pro-Gly-NH2) | 0.07 ng/mL | – | almost completely inhibited HIV replication | 0.42 ng/mL | dense nodular structure attached to the outer part of viral envelope [3]: 4%; treated cells carrying virus particles that had nodular structures on outer membrane [3]: 65%; nodules in cells not stimulated with PMA to produce virus (in words) ([4]; ACH-2 cells, 1 mM, no PMA stimulation): did not show such nodules; dense nodular structure attached to the outer part of viral envelope [4, 6]: 2%; treated cells carrying virus particles that had nodular structures on outer membrane [4, 6]: 74%; nodules upon combined treatment with protease inhibitor ritonavir (in words) ([4]; PMA stimulated ACH-2 cells, GPG-NH2 1 mM plus ritonavir 2 μM): gave no such nodules
